Reference: patent publication US7332476B2, “Pyridyl substituted ketolide antibiotics” (Novartis AG, priority 2003, dated 2008)
≈ marks a conversion by molar mass, not a printed value.

What was measured:
Assay in all cases: MIC, broth microdilution (NCCLS)
[1] = system: Streptococcus pneumoniae Stpn_Erm S 4297; assay type: cell-based; settings: Table 7, Strain ID J (Table 6): S. pneumoniae Stpn_Erm S 4297
Procedure, shortened: (§1)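 Broth microdilution per NCCLS in cation-adjusted Mueller-Hinton broth, with 2-5% lysed horse blood added for S. pneumoniae. Inoculum 3×10^5–7×10^5 CFU/ml, 2-fold drug dilutions, 18-24 h at 35° C; S. pneumoniae under 5-10% CO2, others ambient air. MIC = lowest concentration preventing visible growth.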

[2] = system: Haemophilus influenzae Hain_49247; assay type: cell-based; settings: unit assumed
[3] = system: Enterococcus faecalis Enfa_29212; assay type: cell-based; settings: in µg/mL (unit assumed)
Procedure, shortened: as §1

[4] = system: Streptococcus pneumoniae Stpn_Mef S 3427; assay type: cell-based; settings: in µg/mL (unit assumed)
Procedure, shortened: as §1

[5] = system: Staphylococcus aureus Stau_29213; assay type: cell-based; settings: in µg/mL (unit assumed)
Procedure, shortened: as §1

[6] = system: Staphylococcus epidermidis Step_f50654; assay type: cell-based; settings: in µg/mL (unit assumed)
Procedure, shortened: as §1

[7] = system: Staphylococcus epidermidis Step_14990; assay type: cell-based; settings: in µg/mL (unit assumed)
Procedure, shortened: as §1

[8] = system: Streptococcus pneumoniae Stpn_49619; assay type: cell-based; set-up: MIC, strain ID M: unit not given beside the values
Procedure, shortened: as §1

[9] = system: Streptococcus pneumoniae Stpn_280-962; assay type: cell-based; set-up: MIC, strain ID O: unit not given beside the values
Procedure, shortened: as §1

[10] = system: Streptococcus pyogenes Stpy_8668; assay type: cell-based; set-up: MIC, strain ID G: unit not given beside the values
Procedure, shortened: as §1

[11] = system: S. pneumoniae Stpn_Erm 6849; assay type: cell-based, Streptococcus pneumoniae; settings: for MIC: Table 7, Strain ID I (Table 6): S. pneumoniae Stpn_Erm 6849, unit assumed
Procedure, shortened: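 Lowest drug concentration giving no visible growth after 18-24 hours at 35° C. under 5-10% CO2 was taken as MIC. Twofold serial dilutions in CAMHB plus 2-5% lysed horse blood, final inoculum 3×10^5–7×10^5 CFU/ml, per NCCLS microdilution.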

[12] = system: Streptococcus pneumoniae Stpn_Mef 5654; assay type: cell-based; settings: in µg/mL (unit assumed)
Procedure: (§2) Strains. The bacterial isolates listed in Table 4 were cultivated from −70° C. frozen stocks by two consecutive overnight passages (P1, P2) at 35° C. on 5% blood agar (Remel, Lenexa, Kans.). Chocolate agar (Remel) is used for Haemophilus influenzae. H. influenzae and Streptococcus pneumoniae are incubated in 5-10% CO2
(§3) Drug Stock Preparation. To determine the amount of solvent to be used to give the desired final concentration, the formula “weight obtained in mg/final concentration in mg/ml” will be used. It will give the amount of solvent in ml needed to be added to give the desired concentration. For example, if 2.5 mg/ml is the desired concentration and the weight of compound is 13.7 mg, then the amount of solvent to be added is […]. Methanol is used as the solvent to dissolve the test compounds. Further dilution of stock is done in sterile, deionized water. Drug stocks are kept frozen at −70° C., protected from light.
(§4) Susceptibility Testing. MICs are determined by the broth microdilution method in accordance with the NCCLS guidelines. In brief, organism suspensions are adjusted to a 0.5 McFarland standard to yield a final inoculum between 3×10^5 and 7×10^5 CFU/ml. Drug dilutions and inocula are made in sterile, cation adjusted Mueller-Hinton Broth (CAMHB) (Remel) for all but S. pneumoniae [CAMHB with 2-5% lysed horse blood (Remel)] and H. influenzae [Haemophilus Test Medium (Remel)]. An inoculum volume of 100 μl is added to wells containing 100 μl of broth with 2-fold serial dilutions of drug. All inoculated microdilution trays are incubated in ambient air at 35° C. for 18-24 hours, except for S. pneumoniae, and H. influenzae (both at 5-10% CO2).
Following appropriate incubation, the MIC is determined and the MIC is defined as the lowest concentration of the drug that prevented visible growth.
as §2, with “8” for “4”
(§5) Following appropriate incubation, the MIC is determined and the MIC is defined as the lowest concentration of the drug that prevented visible growth. […] Antibacterial activity of representative compounds of the invention were compared against telitromycin.

[13] = system: Streptococcus pneumoniae Stpn_297-749; assay type: cell-based; set-up: MIC, strain ID N: unit not given here
Procedure, shortened: as §1

[14] = system: Haemophilus influenzae Hain_953460299-3; assay type: cell-based; settings: Table 10, Strain ID K (Table 8): Haemophilus influenzae Hain_953460299-3; in µg/mL (unit assumed)
Procedure: as §2, with “8” for “4”
as §3, §4, §5

[15] = system: Enterococcus faecalis Enfa_bc 11148-2; assay type: cell-based; settings: Table 10, Strain ID F (Table 8): Enterococcus faecalis Enfa_bc 11148-2; in µg/mL (unit assumed)
Procedure: as §2, with “8” for “4”
as §3, §4, §5

[16] = system: Haemophilus influenzae Hain_2762; assay type: cell-based; settings: Table 10, Strain ID L (Table 8): Haemophilus influenzae Hain_2762; in µg/mL (unit assumed)
Procedure: as §2, with “8” for “4”
as §3, §4, §5

[17] = system: Staphylococcus aureus Stau_33591; assay type: cell-based; settings: unit assumed
Procedure: as §2, with “8” for “4”
as §3, §4, §5

[18] = system: Haemophilus influenzae Hain_960730503-3; assay type: cell-based; settings: Table 10, Strain ID I (Table 8): Haemophilus influenzae Hain_960730503-3; in µg/mL (unit assumed)
Procedure: as §2, with “8” for “4”
as §3, §4, §5

[19] = system: Haemophilus influenzae Hain_960820544-3; assay type: cell-based; settings: Table 10, Strain ID J (Table 8): Haemophilus influenzae Hain_960820544-3; in µg/mL (unit assumed)
Procedure: as §2, with “8” for “4”
as §3, §4, §5

[20] = Table 7, Strain ID M (Table 6): H. influenzae Hain_49247
[21] = Table 7, Strain ID D (Table 6): E. faecalis Enfa_29212
[22] = Table 7, Strain ID L (Table 6): S. pneumoniae Stpn_Mef S 3427
[23] = Table 7, Strain ID A (Table 6): S. aureus Stau_29213
[24] = Table 7, Strain ID C (Table 6): S. epidermidis Step_f50654
[25] = Table 7, Strain ID B (Table 6): S. epidermidis Step_14990
[26] = Table 7, Strain ID F (Table 6): S. pneumoniae Stpn_49619
[27] = Table 7, Strain ID H (Table 6): S. pneumoniae Stpn_280-962
[28] = Table 7, Strain ID E (Table 6): S. pyogenes Stpy_8668
[29] = Table 7, Strain ID K (Table 6): S. pneumoniae Stpn_Mef 5654
[30] = Table 7, Strain ID G (Table 6): S. pneumoniae Stpn_297-749

SMILES	MIC [1]	MIC [2, 20] [µg/mL]	MIC [3, 21]	MIC [4, 22]	MIC [5, 23]	MIC [6, 24]	MIC [7, 25]	MIC [8, 26]	MIC [9, 27]	MIC [10, 28]	MIC [11] [µg/mL]	MIC [12, 29]	MIC [13, 30]	other results
CC[C@H]1OC(=O)[C@@](C)(F)C(=O)[C@H](C)[C@@H](OC2O[C@H](C)C[C@H](N(C)C)[C@H]2O)[C@@](C)(OC)C[C@@H](C)C(=O)[C@H](C)[C@H]2N(CCCC(C)(C)n3cnc4cccnc43)C(=O)O[C@]12CC (stereo partly drawn) [Example 40, (3aS,4R,7S,9R,10R,11S,13R,15R,15aR)-3a,4-diethyl-7-fluoro-1-[4-(3H-imidazo[4,5-b]pyridin-3-yl)-4-methylpentyl]-11-methoxy-7,9,11,13,15-pentamethyl-2,6,8,14-tetraoxotetradecahydro-2H-oxacyclotetradecino[4,3-d][1,3]oxazol-10-yl-3,4,6-trideoxy-3-(dimethylamino)-D-xylo-hexopyranoside]	=0.05	6.25 (≈ 7.39 µM)	0.1	0.2	0.2	0.2	0.2	=0.05	=0.05	=0.05	0.2 (≈ 0.236 µM)	0.78	=0.05	–
C=C[C@]12OC(=O)N(CCCCn3cnc(-c4cccnc4)c3)[C@@H]1[C@@H](C)C(=O)[C@H](C)C[C@](C)(OC)[C@H](OC1O[C@H](C)C[C@H](N(C)C)[C@H]1O)[C@@H](C)C(=O)[C@@H](C)C(=O)O[C@@H]2CC (stereo partly drawn) [Example 48, (3aS,4R,7R,9R,10R,11R,13R,15R,15aR)-4-ETHYL-11-METHOXY-7,9,11,13,15-PENTAMETHYL-2,6,8,14-TETRAOXO-1-[4-(4-PYRIDIN-3-YL-1H-IMIDAZOL-1-YL)BUTYL]-3a-VINYLTETRADECAHYDRO-1H-OXACYCLOTETRADECINO[4,3-D][1,3]OXAZOL-10-YL-3,4,6-TRIDEOXY-3-(DIMETHYLAMINO)-D-XYLO-HEXOPYRANOSIDE]	=0.05	3.13 (≈ 3.8 µM)	0.1	0.1	0.2	0.2	0.2	=0.05	=0.05	=0.05	0.4 (≈ 0.485 µM)	0.78	=0.05	–
C/C=C\[C@]12OC(=O)N(CCCCn3cnc(-c4cccnc4)c3)[C@@H]1[C@@H](C)C(=O)[C@H](C)C[C@](C)(OC)[C@H](OC1O[C@H](C)C[C@H](N(C)C)[C@H]1O)[C@@H](C)C(=O)[C@](C)(F)C(=O)O[C@@H]2CC (stereo partly drawn) [Example 66, (3aS,4R,7S,9R,10R,11S,13R,15R,15aR)-4-ethyl-7-fluoro-11-methoxy-7,9,11,13,15-pentamethyl-2,6,8,14-tetraoxo-3a-[(1Z)-prop-1-enyl]-1-[4-(4-pyridin-3-yl-1H-imidazol-1-yl)butyl]tetradecahydro-1H-oxacyclotetradecino[4,3-d][1,3]oxazol-10-yl-3,4,6-trideoxy-3-(dimethylamino)-D-xylo-hexopyranoside]	–	6.25 (≈ 7.3 µM)	.01	0.1	0.2	0.2	0.2	=0.05	=0.05	=0.05	0.2 (≈ 0.234 µM)	0.4	=0.05	MIC ([1]; unit assumed): 0.1 µg/mL (≈ 0.117 µM)
C=C[C@]12OC(=O)N(CCCCn3cnc(-c4ccc(N(C)C)nc4)c3)[C@@H]1[C@@H](C)C(=O)[C@H](C)C[C@](C)(OC)[C@H](OC1O[C@H](C)C[C@H](N(C)C)[C@H]1O)[C@@H](C)C(=O)[C@@H](C)C(=O)O[C@@H]2CC (stereo partly shown) [XXIV]	–	–	–	–	–	–	–	–	–	–	–	–	–	MIC ([2]; Table 10, Strain ID H (Table 8): Haemophilus influenzae Hain_49247): 12.5 µg/mL (≈ 14.4 µM); MIC ([3]; Table 10, Strain ID E (Table 8): Enterococcus faecalis Enfa_29212): 0.1; MIC ([4]; Table 10, Strain ID Q (Table 8): Streptococcus pneumoniae Stpn_Mef S 3427): 0.4; MIC ([5]; Table 10, Strain ID A (Table 8): Staphylococcus aureus Stau_29213): 0.2; MIC ([6]; Table 10, Strain ID D (Table 8): Staphylococcus epidermidis Step_f50654): 0.2; MIC ([7]; Table 10, Strain ID C (Table 8): Staphylococcus epidermidis Step_14990): 0.2; MIC ([8]; Table 10, Strain ID M (Table 8): Streptococcus pneumoniae Stpn_49619): =0.05; MIC ([9]; Table 10, Strain ID O (Table 8): Streptococcus pneumoniae Stpn_280-962): =0.05; MIC ([10]; Table 10, Strain ID G (Table 8): Streptococcus pyogenes Stpy_8668): =0.05; MIC ([12]; Table 10, Strain ID P (Table 8): Streptococcus pneumoniae Stpn_Mef 5654): 1.56; MIC ([13]; Table 10, Strain ID N (Table 8): Streptococcus pneumoniae Stpn_297-749): =0.05; MIC [14]: 12.5; MIC [15]: 0.78; MIC [16]: 1.56; MIC ([17]; Table 10, Strain ID B (Table 8): Staphylococcus aureus Stau_33591): > 50 µg/mL; MIC [18]: 12.5; MIC [19]: 6.25
C#C[C@]12OC(=O)N(CCCCn3cnc(-c4ccc(C)nc4)c3)[C@@H]1[C@@H](C)C(=O)[C@H](C)C[C@](C)(OC)[C@H](OC1O[C@H](C)C[C@H](N(C)C)[C@H]1O)[C@@H](C)C(=O)[C@@H](C)C(=O)O[C@@H]2CC (stereo partly shown) [XXXIII]	–	–	–	–	–	–	–	–	–	–	–	–	–	MIC, strain ID E ([3]; strain ID E, broth microdilution): 0.1; MIC, strain ID C ([7]; strain ID C, broth microdilution): 0.2; MIC, strain ID M ([8]; strain ID M, broth microdilution): =0.05; MIC, strain ID O ([9]; strain ID O, broth microdilution): =0.05; MIC, strain ID G ([10]; strain ID G, broth microdilution): =0.05; MIC, strain ID P ([11]; strain ID P, broth microdilution, in µg/mL (unit assumed)): 1.56; MIC, strain ID N ([13]; strain ID N, broth microdilution): =0.05; MIC, strain ID B ([17]; strain ID B, broth microdilution): > 50 µg/mL
